Values of other authors as cited in US20160208299A1, “PRODUCTION OF ISOQUINOLINE ALKALOIDS AND FLAVONOIDS IN PLANT CELL CULTURES OF GOLDENSEAL (HYDRASTIS CANADENSIS)” (DIANAPLANTSCIENCES INC., priority 2015, published 2016).

Experiments:
E. coli = details: cells lining the walls of the urinary tract

COc1ccc2cc3[n+](cc2c1OC)CCc1cc2c(cc1-3)OCO2 [berberine]
effective: effectiveness against parasite (Trichomonas vaginalis) | effectiveness against parasite (Giardia lamblia) | effectiveness in treating infection by blocking the adhesion of E. coli (E. coli) | effectiveness against parasite (Entamoeba histolytica)
